Source: patent US20250177412A1, “SMALL-MOLECULE INHIBITORS TARGETING THE BOB1/OCT1 INTERFACE” (NANTES UNIVERSITE, priority 2022, published 2025)

What was measured:
memory B cells [1] = assay: In vitro plasmablast differentiation, two-phase human B cell model, flow cytometry; assay type: cell-based; settings: for expression of CD20 marker (CD20+ B cells): day 7 (FIG. 3O-P); for frequency of CD27+ cells: day 4
Source text: FIGS. 3A-Y are a combination of graphs and FACS plots showing that targeting BOB1-OCT(s) complex by compound 005 dose-dependently impairs B cells proliferation, activation and differentiation into plasmablasts in the human B cell differentiation in vitro model. Enriched memory B cells from the blood of healthy subjects (n=15) were stimulated at day 0 with anti-F(ab′)2, CD40L, CpG, and IL-2 for four days (activation phase). On day 4, cells were washed and stimulated with IL-2, IL-4, and IL-10 for additional three days (differentiation phase). Compound 005 was added daily to the cultures to a final concentration of 0 (DMSO), 5, 10, 15, 20 μM, as indicated. […] FIG. 3C-H show corresponding summarized data for the frequency (FIG. 3C, E and G) and relative mean fluorescence intensity (MFI; FIG. 3D, F and H) of CD27^+ (FIG. 3C-D), CD38^+ (FIG. 3E-F), and CD20^+ (FIG. 3G-H) B cells analyzed at Day 4. […] FIG. 3K-P show corresponding summarized data for the frequency (Fig. K, M and O) and relative mean fluorescence intensity (MFI; Fig. L, N and P) of CD27^+ (FIG. 3K-L), CD38^+ (FIG. 3M-N), and CD20^+ (FIG. 3O-P) B cells analyzed at Day 7. […] FIG. 3R-Y show the effect of compound 005 on the levels of IgG1 (FIG. 3R), IgG2 (FIG. 3S), IgG3 (FIG. 3T), IgG4 (FIG. 3U), IgA (FIG. 3V), IgE (FIG. 3W), IgM (FIG. 3X) and IgD (FIG. 3Y) immunoglobulin isotypes production at Day 7. Error bars are mean±SD. P values were determined with one-way ANOVA with Geisser-Greenhouse's multiple comparisons test.
Blood samples were obtained from healthy volunteers provided by Sanquin Blood Supply Foundation (Amsterdam, the Netherlands) or from Etablissement Français du Sang (Nantes, France) after written consent was obtained. Peripheral blood mononuclear cells (PBMCs) were isolated through Ficoll-Paque gradient centrifugation on Lymphoprep (Nycomed). Total B cells were isolated from freshly purified PBMCs by negative selection (B cell Isolation Kit II; Miltenyi Biotech, 130-091-151) on magnetic columns using autoMACS Pro Separator according to the manufacturer's instructions. Subsequently, memory and naïve B cells were isolated from negatively-selected CD19^+ B cells by positive and negative selection with CD27 MicroBeads (Miltenyi Biotech, 130-051-601) using autoMACS Pro Separator according to the manufacturer's instructions. Ultimately, purity of the MACS-isolated CD19^+ B cells, CD19^+CD27^+IgD^− memory B cells and CD19^+CD27^−IgD^+ […] was assessed by flow cytometry; purity was >90% for B cells, >65% for memory B cells, and >85% for naive B cells. All cell cultures were carried out in RPMI 1640 medium (Thermo Fisher Scientific) supplemented with 10% FCS, L-glutamine, and penicillin/streptomycin. Cells were incubated at 37° C. in a 5% CO2 atmosphere.
Cells were resuspended in PBS and labelled with Cell Proliferation Dye eFluor 450 (CPD) (eBioscience) at a final concentration of 10 μM at 37° C. for 10 min, kept on ice for 5 min, and washed twice with 10 mL of ice-cold RPMI 1640 10% FCS medium.
B cells were stimulated to differentiate into plasmablasts using a two-phase cell culture protocol as previously described. Briefly, B cells were seeded at 4×10^5 cells/mL in 24-well plates and activated during 4 days with 50 ng/mL recombinant human soluble CD40L (R&D Systems), 2.5 μg/mL CpG oligodeoxynucleotide (ODN) 2006 (Amidogen or Cayla Invivogen), 2 μg/mL F(ab′)2 fragment goat anti-human IgA+IgG+IgM (H+L) polyclonal Abs (anti-BCR) (Jackson ImmunoResearch Laboratories), and 50 U/mL human IL-2 (SARL Pharmaxie or Novartis). Day 4-activated B cells were washed and cultured at the same concentration for three additional days in a fresh medium containing 50 U/mL human IL-2, 10 ng/mL human IL-4 (R&D Systems), and 10 ng/mL human IL-10 (R&D Systems) to induce B cell differentiation into plasmablasts. […]

memory B cells [2] = assay: High-throughput multiplex qPCR of B-cell-related genes; assay type: cell-based, human; settings: 10 μM
Description: FIGS. 4A-AA are a combination of heatmap plot and graphs showing expression of B-cell-related genes at day 4 and day 7 of the human B cell differentiation in vitro model in the presence of 0 μM and 10 μM of the compound 005 (n=6). Experimental conditions are as described in the FIG. 3. […] FIG. 4B-AA show expression of the selected genes at day 4 related to proliferation (FIG. 4B-D), plasma-cell differentiation (FIG. 4E-I), immunoglobulin isotype switching (FIG. 4J-M), B-cell identity (FIG. 4N-S), and B-cell activation (FIG. 4T-AA).

Cc1ccc(NC(=O)C2CN(c3nc(NCCCc4ccc(F)cc4)nc(NCCC(=O)O)n3)c3ccccc3O2)cc1Cl (stereo not shown) [compound 005, 3-((4-(2-((3-chloro-4-methylphenyl)carbamoyl)-2,3-dihydro-4H-benzo[b][1,4]oxazin-4-yl)-6-((3-(4-fluorophenyl)propyl)amino)-1,3,5-triazin-2-yl)amino)propanoic acid]
frequency of CD38+ B cells (memory B cells [1]; 5 μM, day 4, mean±SD): 30.5±25.6%
proliferating (CPD low) B cells (memory B cells [1]; 5 μM, day 4, mean±SD): 66.3±4.8%
frequency of CD38+ B cells (memory B cells [1]; 5 μM, day 7): 68.9±10.2%
relative proportion of CD27+ cells (memory B cells [1]; 5 μM, day 7): 54.3±15.9%
frequency of CD38+ B cells (memory B cells [1]; 10 μM, day 4, mean±SD): 23.9±18.3
proliferating (CPD low) B cells (memory B cells [1]; 10 μM, day 4, mean±SD): 46.7±18.3%
CD20loCD38hi plasmablasts generation, median percentage decrease (memory B cells [1]; 10 μM, day 7): 30.3%
frequency of CD38+ B cells (memory B cells [1]; 10 μM, day 7): 55.5±16.1
relative proportion of CD27+ cells (memory B cells [1]; 10 μM, day 7): 53.6±14.2%
expression of CD20 marker (CD20+ B cells) (memory B cells [1]; 10 μM): 81.7±12.4%
frequency of CD27+ cells (memory B cells [1]; 15 μM): 9.5±11.7%
frequency of CD38+ B cells (memory B cells [1]; 15 μM, day 4, mean±SD): 4.3±3.7%
proliferating (CPD low) B cells (memory B cells [1]; 15 μM, day 4, mean±SD): 34.9±19.2%
CD20loCD38hi plasmablasts generation, median percentage decrease (memory B cells [1]; 15 μM, day 7): 70.5%
frequency of CD38+ B cells (memory B cells [1]; 15 μM, day 7): 26.3±13.9%
expression of CD20 marker (CD20+ B cells) (memory B cells [1]; 15 μM): 85.4±11.7%
frequency of CD27+ cells (memory B cells [1]; 20 μM): 6.4±6.4
frequency of CD38+ B cells (memory B cells [1]; 20 μM, day 4, mean±SD): 2.5±2.2
proliferating (CPD low) B cells (memory B cells [1]; 20 μM, day 4, mean±SD): 20.4±19.0%
CD20loCD38hi plasmablasts generation, median percentage decrease (memory B cells [1]; 20 μM, day 7): 85.2%
frequency of CD38+ B cells (memory B cells [1]; 20 μM, day 7): 13.0±12.9
relative proportion of CD27+ cells (memory B cells [1]; 20 μM, day 7): 9.4±8.1%
frequencies of naïve B cells (memory B cells [1]; with the increase in concentration, day 7): significantly increased
expression of genes related to the B cell identity and activation (memory B cells [2]): upregulated
expression of plasma cell related genes (memory B cells [2]): suppressed
